# Read-outs that look alike come from different tables or passages of the source.
# How the values were obtained:
# Type in all cases: cell-based
# IL-2 production = test: Human PBMC CD3/CD28-induced IL-2 production inhibition test; settings: 48 h, read-out: IC50 value, IL-2 production inhibition
# Method: PBMC (peripheral blood mononuclear cell) was separated and collected by using Ficoll-Paque (manufactured by GE Healthcare Japan Corp.) from blood collected from a healthy human adult in the presence of heparin. A RPMI1640 medium containing 10% FBS, 1% penicillin/streptomycin/amphotericin B, essential amino acids, and pyruvic acid and containing a test compound dissolved in DMSO and 2 μg/mL CD28 was added at 100 μL/well to T cell Activation Plate Anti-Human CD3 96-well plate (manufactured by Becton, Dickinson and Company), and subsequently, a PBMC suspension prepared such that the number of cells was 2×10^6 cells/mL was added thereto at 100 μL/well (final DMSO concentration: 0.1%). A RPMI1640 medium containing 10% FBS and containing 0.1% DMSO and 2 μg/mL CD28 was similarly added to wells not supplemented with the test compound. After culture for 2 days in a carbon dioxide incubator, the culture supernatant was collected. The collected culture supernatant was stored at −20° C. until IL-2 content measurement.
# In the measurement of an L-2 content in the culture supernatant, a sandwich ELISA kit (Quantikine Human IL-2, manufactured by R&D Systems, Inc.) was used. The L-2 content of each sample was calculated from the calibration curve of Standard IL-2 included in the kit. […] A test compound concentration necessary for inhibiting 50% of L-2 production (IC50 value) was calculated from the concentration of the added test compound and the rate of inhibition of IL-2 production by the test compound by using EXSUS (version 8.1.0, manufactured by CAC Exicare Corp.).
# [1] = tested on: breast cancer cell line BT-549; test: Various human cancer cell growth inhibition test: BT-549; settings: ATPlite, read-out: GI50 value (concentration necessary for inhibiting 50% of cell growth)
# From the text: (§1) A breast cancer cell line BT-549 (obtained from American Type Culture Collection (ATCC)), a uterus cancer cell line C-33A (obtained from ATCC), an ovary cancer cell line PA-1 (obtained from ATCC), a large-cell lung cancer cell line NCI-H460 (obtained from ATCC), a small-cell lung cancer cell line NCI-H82 (obtained from ATCC), a kidney cancer cell line ACHN (obtained from ATCC), a pancreatic cancer cell line BxPC-3 (obtained from ATCC), a malignant melanoma cell line A375 (obtained from ATCC), a throat cancer cell line FaDu (obtained from ATCC), a medulloblastoma cell line Daoy (obtained from ATCC), a cutaneous epithelioid sarcoma cell line VA-ES-BJ (obtained from ATCC), a rhabdomyosarcoma cell line A-204 (obtained from ATCC), a prostate cancer cell line DU145 (obtained from ATCC), a bladder cancer cell line T24 (obtained from ATCC), a lymphoma cell line SR (obtained from ATCC), a neuroblastoma cell line SH-SY5Y (obtained from DS Pharma Biomedical Co., Ltd.), a liver cancer cell line HepG2 (obtained from DS Pharma Biomedical Co., Ltd.), a stomach cancer cell line HGC-27 (obtained from DS Pharma Biomedical Co., Ltd.), and a multiple myeloma cell line NCI-H929 (obtained from DS Pharma Biomedical Co., Ltd.) were used as human cancer cell lines.
# (§2) Each cell line was cultured in a cell culture medium recommended by ATCC or DS Pharma Biomedical Co., Ltd. and inoculated at 0.3 to 5.0×10^3 cells/well to a 96-well plate. The cells were cultured overnight in a carbon dioxide incubator of 37° C. containing 5% carbon dioxide. The medium was replaced with a fresh medium on the next day, then replaced with a mixed solution of a DMSO solution of a test compound with varying concentrations and a culture medium (final DMSO concentration: 0.1%), and left standing in a carbon dioxide incubator (day 0). IV-361, IV-379, IV-3, IV-215, IV-299, IV-669, IV-1049, and palbociclib (for comparison) were used as test compounds. For a control group, DMSO was added instead of the DMSO solution of the test compound to a cell culture medium (final DMSO concentration: 0.1%).
# (§3) After culture for a predetermined period, the ATP activity of BT-549, C-33A, PA-1, NCI-H460, NCI-H82, ACHN, BxPC-3, A375, FaDu, Daoy, VA-ES-BJ, A-204, DU145, T24, and SR was measured by using ATPlite (manufactured by PerkinElmer, Inc.). The ATP activity of SH-SY5Y, HepG2, HGC-27, and NCI-H929 was measured by using CellTiter-Glo (manufactured by Promega Corp.).
# (§4) The rate of inhibition of cell growth (%) was calculated according to the expression given below. Specifically, in the case where the difference between the ATP activity before culture (day 0) and the ATP activity after culture in the test compound-administered group is the same as the difference between the ATP activity before culture (day 0) and the ATP activity after culture in the control group, the rate of inhibition of cell growth is 0%. Rate of inhibition of cell growth=(1−((ATP activity of the test compound-administered group after culture)−(ATP activity of the test compound-administered group on day 0))/((ATP activity of the control group after culture)−(ATP activity of the control group on day 0)))×100
# (§5) The concentration of the test compound necessary for inhibiting 50% of cell growth (GI50 value) was calculated by using EXSUS (version 8.1.0, manufactured by CAC Exicare Corp.).
# [2] = tested on: uterus cancer cell line C-33A; test: Various human cancer cell growth inhibition test: C-33A; settings: ATPlite, read-out: GI50 value (concentration necessary for inhibiting 50% of cell growth)
# From the text: as §1, §2, §3, §4, §5
# [3] = tested on: ovary cancer cell line PA-1; test: Various human cancer cell growth inhibition test: PA-1; settings: ATPlite, read-out: GI50 value (concentration necessary for inhibiting 50% of cell growth)
# From the text: as §1, §2, §3, §4, §5
# [4] = tested on: large-cell lung cancer cell line NCI-H460; test: Various human cancer cell growth inhibition test: NCI-H460; settings: ATPlite, read-out: GI50 value (concentration necessary for inhibiting 50% of cell growth)
# From the text: as §1, §2, §3, §4, §5
# [5] = tested on: small-cell lung cancer cell line NCI-H82; test: Various human cancer cell growth inhibition test: NCI-H82; settings: ATPlite, read-out: GI50 value (concentration necessary for inhibiting 50% of cell growth)
# From the text: as §1, §2, §3, §4, §5
# [6] = tested on: kidney cancer cell line ACHN; test: Various human cancer cell growth inhibition test: ACHN; settings: ATPlite, read-out: GI50 value (concentration necessary for inhibiting 50% of cell growth)
# From the text: as §1, §2, §3, §4, §5
# [7] = tested on: pancreatic cancer cell line BxPC-3; test: Various human cancer cell growth inhibition test: BxPC-3; settings: ATPlite, read-out: GI50 value (concentration necessary for inhibiting 50% of cell growth)
# From the text: as §1, §2, §3, §4, §5
# [8] = tested on: throat cancer cell line FaDu; test: Various human cancer cell growth inhibition test: FaDu; settings: ATPlite, read-out: GI50 value (concentration necessary for inhibiting 50% of cell growth)
# From the text: as §1, §2, §3, §4, §5
# [9] = tested on: medulloblastoma cell line Daoy; test: Various human cancer cell growth inhibition test: Daoy; settings: ATPlite, read-out: GI50 value (concentration necessary for inhibiting 50% of cell growth)
# From the text: as §1, §2, §3, §4, §5
# [10] = tested on: cutaneous epithelioid sarcoma cell line VA-ES-BJ; test: Various human cancer cell growth inhibition test: VA-ES-BJ; settings: ATPlite, read-out: GI50 value (concentration necessary for inhibiting 50% of cell growth)
# From the text: as §1, §2, §3, §4, §5
# [11] = tested on: bladder cancer cell line T24; test: Various human cancer cell growth inhibition test: T24; settings: ATPlite, read-out: GI50 value (concentration necessary for inhibiting 50% of cell growth)
# From the text: as §1, §2, §3, §4, §5
# lymphoma cell line SR = test: Various human cancer cell growth inhibition test: SR; settings: ATPlite, read-out: GI50 value (concentration necessary for inhibiting 50% of cell growth)
# From the text: as §1, §2, §3, §4, §5
# [12] = tested on: liver cancer cell line HepG2; test: Various human cancer cell growth inhibition test: HepG2; settings: CellTiter-Glo, read-out: GI50 value (concentration necessary for inhibiting 50% of cell growth)
# From the text: as §1, §2, §3, §4, §5
# [13] = tested on: stomach cancer cell line HGC-27; test: Various human cancer cell growth inhibition test: HGC-27; settings: CellTiter-Glo, read-out: GI50 value (concentration necessary for inhibiting 50% of cell growth)
# From the text: as §1, §2, §3, §4, §5
# [14] = human PBMC, CD3/CD28 stimulation, culture for 2 days, ELISA
Compound,IC50 (IL-2 production; [14]),GI50 [1],GI50 [2],GI50 [3],GI50 [4],GI50 [5],GI50 [6],GI50 [7],GI50 [8],GI50 [9],GI50 [11],GI50 (lymphoma cell line SR),GI50 [12],GI50 [13],GI50 [10],"IC50 (IL-2 production; Homo sapiens, PBMC)"
"CC1(C)c2[nH]nc(NC(=O)C3([Si](C)(C)C)CCC3)c2CN1C(=O)Nc1ccccc1F [IV-3, N-(2-Fluorophenyl)-6,6-dimethyl-3-[1-(trimethylsilyl)cyclobutanecarboxamido]-4,6-dihydropyrrolo[3,4-c]pyrazole-5(1H)-carboxamide]",≤ 100 nM,< 300 nM,< 300 nM,< 300 nM,< 300 nM,< 300 nM,< 300 nM,< 300 nM,< 300 nM,< 300 nM,< 300 nM,< 300 nM,300 to 1000 nM,< 300 nM,< 300 nM,
"Cc1ccccc1NC(=O)N1Cc2c(NC(=O)C3([Si](C)(C)C)CCC3)n[nH]c2C1(C)C [IV-21, 6,6-Dimethyl-N-(o-tolyl)-3-[1-(trimethylsilyl)cyclobutanecarboxamido]-4,6-dihydropyrrolo[3,4-c]pyrazole-5(1H)-carboxamide]",≤ 100 nM,,,,,,,,,,,,,,,
"CC1(C)c2[nH]nc(NC(=O)C3([Si](C)(C)C)CCC3)c2CN1C(=O)Nc1c(F)cccc1Cl [IV-113, N-(2-Chloro-6-fluorophenyl)-6,6-dimethyl-3-[1-(trimethylsilyl)cyclobutanecarboxamido]-4,6-dihydropyrrolo[3,4-c]pyrazole-5(1H)-carboxamide]",,,,,,,,,,,,,,,,≤ 100 nM
"Cc1ccc(F)c(NC(=O)N2Cc3c(NC(=O)C4([Si](C)(C)C)CCC4)n[nH]c3C2(C)C)c1 [IV-127, N-(2-Fluoro-5-methylphenyl)-6,6-dimethyl-3-[1-(trimethylsilyl)cyclobutanecarboxamido]-4,6-dihydropyrrolo[3,4-c]pyrazole-5 (1H)-carboxamide]",≤ 100 nM,,,,,,,,,,,,,,,
"COc1cccc(F)c1NC(=O)N1Cc2c(NC(=O)C3([Si](C)(C)C)CCC3)n[nH]c2C1(C)C [IV-161, N-(2-Fluoro-6-methoxyphenyl)-6,6-dimethyl-3-[1-(trimethylsilyl)cyclobutanecarboxamido]-4,6-dihydropyrrolo[3,4-c]pyrazole-5(1H)-carboxamide]",≤ 100 nM,,,,,,,,,,,,,,,
"Cc1cccc(Cl)c1NC(=O)N1Cc2c(NC(=O)C3([Si](C)(C)C)CCC3)n[nH]c2C1(C)C [IV-215, N-(2-Chloro-6-methylphenyl)-6,6-dimethyl-3-[1-(trimethylsilyl)cyclobutanecarboxamido]-4,6-dihydropyrrolo[3,4-c]pyrazole-5 (1H)-carboxamide]",≤ 100 nM,< 300 nM,< 300 nM,< 300 nM,< 300 nM,< 300 nM,< 300 nM,< 300 nM,< 300 nM,< 300 nM,< 300 nM,< 300 nM,< 300 nM,< 300 nM,< 300 nM,
"Cc1cccc(Br)c1NC(=O)N1Cc2c(NC(=O)C3([Si](C)(C)C)CCC3)n[nH]c2C1(C)C [IV-299, N-(2-Bromo-6-methylphenyl)-6,6-dimethyl-3-[1-(trimethylsilyl)cyclobutanecarboxamido]-4,6-dihydropyrrolo[3,4-c]pyrazole-5 (1H)-carboxamide]",≤ 100 nM,< 300 nM,< 300 nM,< 300 nM,< 300 nM,< 300 nM,< 300 nM,< 300 nM,< 300 nM,< 300 nM,< 300 nM,< 300 nM,300 to 1000 nM,< 300 nM,< 300 nM,

# Continued, in another order:
IC50 (IL-2 production; [14]),GI50 [1],GI50 [2],GI50 [3],GI50 [4],GI50 [5],GI50 [6],GI50 [7],GI50 [8],GI50 [9],GI50 [11],GI50 (lymphoma cell line SR),GI50 [12],GI50 [13],Compound,GI50 [10],"IC50 (IL-2 production; Homo sapiens, PBMC)"
≤ 100 nM,< 300 nM,< 300 nM,< 300 nM,< 300 nM,< 300 nM,< 300 nM,< 300 nM,< 300 nM,< 300 nM,< 300 nM,< 300 nM,300 to 1000 nM,< 300 nM,"Cc1ccc(F)cc1NC(=O)N1Cc2c(NC(=O)C3([Si](C)(C)C)CCC3)n[nH]c2C1(C)C [IV-361, N-(5-Fluoro-2-methylphenyl)-6,6-dimethyl-3-[1-(trimethylsilyl)cyclobutanecarboxamido]-4,6-dihydropyrrolo[3,4-c]pyrazole-5 (1H)-carboxamide]",< 300 nM,
≤ 100 nM,< 300 nM,< 300 nM,< 300 nM,< 300 nM,< 300 nM,< 300 nM,< 300 nM,< 300 nM,< 300 nM,< 300 nM,< 300 nM,< 300 nM,< 300 nM,"Cc1ccc(C)c(NC(=O)N2Cc3c(NC(=O)C4([Si](C)(C)C)CCC4)n[nH]c3C2(C)C)c1 [IV-379, N-(2,5-Dimethylphenyl)-6,6-dimethyl-3-[1-(trimethylsilyl)cyclobutanecarboxamido]-4,6-dihydropyrrolo[3,4-c]pyrazole-5(1H)-carboxamide]",< 300 nM,
≤ 100 nM,< 300 nM,< 300 nM,< 300 nM,< 300 nM,< 300 nM,< 300 nM,< 300 nM,< 300 nM,< 300 nM,< 300 nM,< 300 nM,< 300 nM,< 300 nM,"Cc1ccc(C)c(NC(=O)N2Cc3c(NC(=O)C4([Si](C)(C)C)CCC4)n[nH]c3C2(C)C)c1F [IV-669, N-(2-Fluoro-3,6-dimethylphenyl)-6,6-dimethyl-3-[1-(trimethylsilyl)cyclobutanecarboxamido]-4,6-dihydropyrrolo[3,4-c]pyrazole-5(1H)-carboxamide]",< 300 nM,

# — patent publication US10894798B2, “Substituted dihydropyrrolopyrazole derivative” (UBE INDUSTRIES, LTD., priority 2015, dated 2021)
